# Reference: EPA's ToxRefDB 2
# Columns and labels:
# mouse [1] = conditions: Subchronic oral toxicity in rodents, b6c3f1, Feed, dose end: 90 day, group: systemic
# dog [2] = conditions: Subchronic oral toxicity in nonrodent, beagle, Feed, dose end: 13 week, group: systemic
# rat [3] = conditions: Subchronic oral toxicity in rodents, fischer, Feed, dose end: 90 day, group: systemic, systemic / clinical chemistry / thyroxine (t4) / thyroxine (t4), total + systemic / clinical chemistry / triiodothyronine (t3) / …
# rat [4] = conditions: Combined chronic toxicity/carcinogenicity, fischer, Oral, [Not Specified], dose end: 24 month, group: systemic
# dog [5] = conditions: Subchronic oral toxicity in nonrodent, beagle, Capsule, dose end: 13 week, group: systemic, systemic / clinical chemistry / creatinine / creatinine + systemic / clinical chemistry / urea nitrogen / urea nitrogen + systemic / in life…
# dog [6] = conditions: Chronic toxicity, beagle, Oral, Feed, dose end: 52 week, group: systemic
# mouse [7] = conditions: Combined chronic toxicity/carcinogenicity; b6c3f1; Oral; Feed; dose end: 104 week; group: systemic; systemic / organ weight / kidney / absolute + systemic / organ weight / kidney / relative to body weight + systemic / pathology microscopic…
# rat [8] = conditions: Prenatal developmental toxicity study, fischer, Oral, Gavage/Intubation, dose end: 15 GD
# rat [9] = conditions: Subchronic oral toxicity in rodents, long evans, Feed, dose end: 96 day, group: systemic, systemic / in life observation / body weight / body weight gain + systemic / in life observation / food consumption / food efficiency
# mouse [10] = conditions: Subchronic oral toxicity in rodents, b6c3f1, Feed, dose end: 13 week, group: systemic, systemic / in life observation / mortality / mortality
# mouse [11] = conditions: Carcinogenicity; b6c3f1; Oral; Feed; dose end: 103 week; group: systemic; systemic / in life observation / clinical signs / alopecia + systemic / in life observation / clinical signs / aggressive behavior
# rat [12] = conditions: Subchronic oral toxicity in rodents, fischer, Feed, dose end: 13 week, group: systemic, systemic / in life observation / body weight / body weight gain
# rat [13] = conditions: Subchronic inhalation toxicity, long evans, Whole-Body, dose end: 58 day, group: systemic, systemic / in life observation / clinical signs / abnormal movements
# rat [14] = conditions: Combined chronic toxicity/carcinogenicity; sprague dawley; Oral; Feed; dose end: 104 week; group: systemic; systemic / in life observation / clinical signs / convulsions
# rat [15] = conditions: Subchronic oral toxicity in rodents, sprague dawley, Feed, dose end: 90 day, group: systemic, systemic / in life observation / body weight / body weight + systemic / in life observation / body weight / body weight gain + systemic / in…
# [16] = systemic / pathology microscopic / kidney / [other] + systemic / pathology microscopic / liver / nuclear alteration + systemic / pathology …
# [17] = systemic / in life observation / body weight / body weight + systemic / in life observation / body weight / body weight gain + systemic / in…
# [18] = systemic / clinical chemistry / thyroxine (t4) / thyroxine (t4), total + systemic / organ weight / thyroid gland / absolute + systemic / …
# [19] = systemic / pathology gross / thyroid gland / mass
# [20] = systemic / clinical chemistry / alanine aminotransferase (alt/sgpt) / alanine aminotransferase (alt/sgpt) + systemic / clinical chemistry / …
# [21] = systemic / in life observation / body weight / body weight gain + systemic / pathology microscopic / kidney / pigmentation
# [22] = group: developmental, developmental / developmental malformation / bone / full supernumerary + developmental / developmental malformation / bone / incomplete …
# [23] = group: maternal, systemic / in life observation / body weight / body weight gain
compound,measurement,setting,value
"O=C(O)COc1ccc(Cl)cc1Cl [2,4-Dichlorophenoxyacetic acid]",LEL,"mouse [1]; systemic / clinical chemistry / thyroxine (t4) / thyroxine (t4), free + systemic / in life observation / food consumption / food consumption",98.2 mg/kg/day
same,LOAEL,mouse [1]; [16],293 mg/kg/day
same,NEL,mouse [1]; [16],14.7 mg/kg/day
same,NOAEL,mouse [1]; [16],98.2 mg/kg/day
same,LEL,dog [2]; [17],0.5 mg/kg/day
same,NEL,dog [2]; [17],< 0.5 mg/kg/day
same,NOAEL,dog [2]; [17],1 mg/kg/day
same,LOAEL,dog [2]; systemic / in life observation / body weight / body weight gain + systemic / clinical chemistry / alanine aminotransferase (alt/sgpt) / …,3.75 mg/kg/day
same,LEL,rat [3],100 mg/kg/day
same,LOAEL,rat [3],100 mg/kg/day
same,NEL,rat [3],15 mg/kg/day
same,NOAEL,rat [3],15 mg/kg/day
same,LOAEL,rat [4]; [18],73.1 mg/kg/day
same,NOAEL,rat [4]; [18],4.89 mg/kg/day
same,LEL,rat [4]; [19],4.89 mg/kg/day
same,NEL,rat [4]; [19],< 4.89 mg/kg/day
same,LEL,dog [5],3 mg/kg/day
same,LOAEL,dog [5],3 mg/kg/day
same,NEL,dog [5],1 mg/kg/day
same,NOAEL,dog [5],1 mg/kg/day
same,LOAEL,dog [6]; [20],5 mg/kg/day
same,NOAEL,dog [6]; [20],1 mg/kg/day
same,LEL,dog [6]; [21],1 mg/kg/day
same,NEL,dog [6]; [21],< 1 mg/kg/day
same,LEL,mouse [7],62.5 mg/kg/day
same,LOAEL,mouse [7],62.5 mg/kg/day
same,NEL,mouse [7],5 mg/kg/day
same,NOAEL,mouse [7],5 mg/kg/day
same,LEL,rat [8]; [22],75 mg/kg/day
same,LOAEL,rat [8]; [22],75 mg/kg/day
same,NEL,rat [8]; [22],25 mg/kg/day
same,NOAEL,rat [8]; [22],25 mg/kg/day
same,LEL,rat [8]; [23],75 mg/kg/day
same,LOAEL,rat [8]; [23],75 mg/kg/day
same,NEL,rat [8]; [23],25 mg/kg/day
same,NOAEL,rat [8]; [23],25 mg/kg/day
COC(=O)c1ccc(C(=O)OC)cc1 [Dimethyl terephthalate],LEL,rat [9],500 mg/kg/day
same,LOAEL,rat [9],> 500 mg/kg/day
same,NEL,rat [9],250 mg/kg/day
same,NOAEL,rat [9],≥ 500 mg/kg/day
same,LEL,mouse [10],375 mg/kg/day
same,LOAEL,mouse [10],> 3000 mg/kg/day
same,NEL,mouse [10],262 mg/kg/day
same,NOAEL,mouse [10],≥ 3000 mg/kg/day
same,LEL,mouse [11],375 mg/kg/day
same,LOAEL,mouse [11],> 750 mg/kg/day
same,NEL,mouse [11],< 375 mg/kg/day
same,NOAEL,mouse [11],≥ 750 mg/kg/day
same,LEL,rat [12],500 mg/kg/day
same,LOAEL,rat [12],500 mg/kg/day
same,NEL,rat [12],250 mg/kg/day
same,NOAEL,rat [12],250 mg/kg/day
same,LEL,rat [13],4 mg/kg/day
same,LOAEL,rat [13],> 4 mg/kg/day
same,NEL,rat [13],0.7 mg/kg/day
same,NOAEL,rat [13],≥ 4 mg/kg/day
N#Cc1nn(-c2c(Cl)cc(C(F)(F)F)cc2Cl)c(N)c1C(F)(F)F [Fipronil-desulfinyl],LEL,rat [14],0.032 mg/kg/day
same,LOAEL,rat [14],0.032 mg/kg/day
same,NEL,rat [14],< 0.032 mg/kg/day
same,NOAEL,rat [14],< 0.032 mg/kg/day
same,LEL,rat [15],0.594 mg/kg/day
same,LOAEL,rat [15],0.594 mg/kg/day
same,NEL,rat [15],0.177 mg/kg/day
same,NOAEL,rat [15],0.177 mg/kg/day
